In ChEMBL document CHEMBL1201862, “PubChem BioAssay data set” (2004):
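Results reflect a 48-hour exposure of cells in 96-well plates to compound at five concentrations. GI50 is the concentration that inhibits growth by half.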 The source made the active and inactive calls. No stated cut-off is given here; in the data, active = GI50 up to about 1.1 µM and inactive = higher.

Legend:
Assay in all cases: DTP human tumour cell line panel, 48 h
BT-549 = tested on: BT-549
MDA-N = tested on: MDA-N
M14 = tested on: M14
HOP-92 = tested on: HOP-92
NCI-H522 = tested on: NCI-H522
UO-31 = tested on: UO-31
MOLT-4 = tested on: MOLT-4
Malme-3M = tested on: Malme-3M
MCF7 = tested on: MCF7
786-0 = tested on: 786-0
Hs-578T = tested on: Hs-578T
OVCAR-5 = tested on: OVCAR-5
DU-145 = tested on: DU-145
PC-3 = tested on: PC-3
HOP-62 = tested on: HOP-62
NCI-H226 = tested on: NCI-H226
SF-539 = tested on: SF-539
OVCAR-3 = tested on: OVCAR-3
T47D = tested on: T47D
COLO 205 = tested on: COLO 205

Compound	GI50 (BT-549)	GI50 (MDA-N)	GI50 (M14)	GI50 (HOP-92)	GI50 (NCI-H522)	GI50 (UO-31)	GI50 (MOLT-4)	GI50 (Malme-3M)	GI50 (MCF7)	GI50 (786-0)	GI50 (Hs-578T)	GI50 (OVCAR-5)	GI50 (DU-145)	GI50 (PC-3)	GI50 (HOP-62)	GI50 (NCI-H226)	GI50 (SF-539)	GI50 (OVCAR-3)	GI50 (T47D)	GI50 (COLO 205)
Nc1nc(N)c(CCCCc2ccccc2)c(N)n1	> 100 µM (inactive)	> 100 µM (inactive)	> 100 µM (inactive)	> 100 µM (inactive)	> 100 µM (inactive)	> 100 µM (inactive)	> 100 µM (inactive)	> 100 µM (inactive)	> 100 µM (inactive)	> 100 µM (inactive)	> 100 µM (inactive)	> 100 µM (inactive)	> 100 µM (inactive)	> 100 µM (inactive)	> 100 µM (inactive)	> 100 µM (inactive)	> 100 µM (inactive)	> 100 µM (inactive)	> 100 µM (inactive)	> 100 µM (inactive)
CCOC(=O)N1CCc2cc(OC)c(OC)c3c2c1cc1cc(OC)c(OC)cc13	0.577 µM (active)	0.127 µM (active)	4.29 µM (inactive)	3.8 µM (inactive)	0.618 µM (active)	11.1 µM (inactive)	5.32 µM (inactive)	3.5 µM (inactive)	1.1 µM (active)	2.53 µM (inactive)	1.99 µM (inactive)	16.9 µM (inactive)	3.59 µM (inactive)	1.54 µM (inactive)	3.27 µM (inactive)	4.33 µM (inactive)	1.69 µM (inactive)	0.984 µM (active)	2.79 µM (inactive)	0.787 µM (active)
Cc1cc(S(=O)(=O)Nc2nc(N)nc(N(C)C)n2)c(SC(C(=O)O)c2ccccc2)cc1Cl (centres undefined)	> 10 µM (inactive)	> 10 µM (inactive)	> 10 µM (inactive)	> 10 µM (inactive)	> 10 µM (inactive)	> 10 µM (inactive)	> 10 µM (inactive)	> 10 µM (inactive)	> 10 µM (inactive)	> 10 µM (inactive)	> 10 µM (inactive)	> 10 µM (inactive)	> 10 µM (inactive)	> 10 µM (inactive)	> 10 µM (inactive)	> 10 µM (inactive)	> 10 µM (inactive)	> 10 µM (inactive)	> 10 µM (inactive)	> 10 µM (inactive)
CC1=NN(c2nc(N)nc(/C(C#N)=C\c3ccc(-c4ccc([N+](=O)[O-])cc4)o3)n2)C(C)(C)C1	> 100 µM (inactive)	> 100 µM (inactive)	> 100 µM (inactive)	> 100 µM (inactive)	> 100 µM (inactive)	> 100 µM (inactive)	> 100 µM (inactive)	> 100 µM (inactive)	> 100 µM (inactive)	> 100 µM (inactive)	62.2 µM (inactive)	> 100 µM (inactive)	> 100 µM (inactive)	> 100 µM (inactive)	1.78 µM (inactive)	> 100 µM (inactive)	> 100 µM (inactive)	> 100 µM (inactive)	> 100 µM (inactive)	> 100 µM (inactive)
COc1cc2ncnc(Nc3cccc(Br)c3)c2cc1OC	12.8 µM (inactive)	7.26 µM (inactive)	3.79 µM (inactive)	3.97 µM (inactive)	0.338 µM (active)	1.98 µM (inactive)	16.6 µM (inactive)	7.36 µM (inactive)	23.1 µM (inactive)	2.11 µM (inactive)	4.44 µM (inactive)	8.13 µM (inactive)	0.0741 µM (active)	3.77 µM (inactive)	10.4 µM (inactive)	3.25 µM (inactive)	4.07 µM (inactive)	5.14 µM (inactive)	6.81 µM (inactive)	4.43 µM (inactive)
CC(=N\N)/C(C)=N/N=C(C)/C(C)=N/N=C(C)/C(C)=N/N=C(C)/C(C)=N/N	97.1 µM (inactive)	> 100 µM (inactive)	> 100 µM (inactive)	0.316 µM (active)	> 100 µM (inactive)	> 100 µM (inactive)	20.9 µM (inactive)	> 100 µM (inactive)	> 100 µM (inactive)	> 100 µM (inactive)	> 100 µM (inactive)	> 100 µM (inactive)	> 100 µM (inactive)	> 100 µM (inactive)	> 100 µM (inactive)	> 100 µM (inactive)	> 100 µM (inactive)	> 100 µM (inactive)	> 100 µM (inactive)	> 100 µM (inactive)
CCCCC/C=C1\CCC(CN2CCOCC2)C1=O (centres undefined)	14.7 µM (inactive)	8.24 µM (inactive)	6.7 µM (inactive)	15.7 µM (inactive)	2.43 µM (inactive)	12.4 µM (inactive)	2.43 µM (inactive)	9.62 µM (inactive)	1.6 µM (inactive)	2.58 µM (inactive)	4.25 µM (inactive)	18.6 µM (inactive)	14.6 µM (inactive)	16.9 µM (inactive)	23.1 µM (inactive)	16.9 µM (inactive)	14.8 µM (inactive)	5.9 µM (inactive)	2.72 µM (inactive)	3.67 µM (inactive)
N=C(N)NCCCS(=O)(=O)Nc1ccc(Nc2c3ccccc3nc3cc([N+](=O)[O-])ccc23)cc1	27.2 µM (inactive)	21.3 µM (inactive)	16.4 µM (inactive)	4.9 µM (inactive)	7.06 µM (inactive)	> 68.4 µM (inactive)	2.33 µM (inactive)	10.1 µM (inactive)	2.53 µM (inactive)	19.2 µM (inactive)	12.5 µM (inactive)	25.4 µM (inactive)	9.33 µM (inactive)	11.7 µM (inactive)	14.5 µM (inactive)	11.7 µM (inactive)	20.3 µM (inactive)	15.6 µM (inactive)	0.728 µM (active)	14.5 µM (inactive)
COc1cccc2c1C(=O)c1c(O)c3c(c(O)c1C2=O)C[C@@](O)(C(=O)CO)C[C@@H]3OC1CC(N)C(OC)C(C)O1 (some centres undefined)	0.27 µM (active)	0.352 µM (active)	0.0975 µM (active)	0.0612 µM (active)	0.076 µM (active)	0.437 µM (active)	< 0.01 µM (active)	0.0532 µM (active)	< 0.01 µM (active)	0.0327 µM (active)	0.138 µM (active)	0.189 µM (active)	0.264 µM (active)	0.153 µM (active)	0.0234 µM (active)	0.0553 µM (active)	0.0421 µM (active)	0.338 µM (active)	0.23 µM (active)	0.209 µM (active)
COC1=CC(=O)c2c(cc(COP(=O)(OCC3OC(n4cc(F)c(=O)[nH]c4=O)CC3O)N(C)CCCCCl)n2C)C1=O (centres undefined)	1.56 µM (inactive)	0.41 µM (active)	0.136 µM (active)	0.137 µM (active)	0.495 µM (active)	0.0605 µM (active)	0.0527 µM (active)	2.42 µM (inactive)	< 0.01 µM (active)	0.186 µM (active)	0.0877 µM (active)	7.45 µM (inactive)	0.321 µM (active)	0.173 µM (active)	0.0413 µM (active)	0.546 µM (active)	< 0.0118 µM (active)	1.2 µM (inactive)	0.991 µM (active)	–
COc1cc(C2c3cc4c(c(O)c3C(=O)C3CCC(=O)N32)OCO4)cc(OC)c1OC (centres undefined)	32.7 µM (inactive)	30.4 µM (inactive)	42.1 µM (inactive)	34.4 µM (inactive)	16.9 µM (inactive)	26.7 µM (inactive)	37.9 µM (inactive)	39.9 µM (inactive)	77.1 µM (inactive)	92.5 µM (inactive)	37.7 µM (inactive)	> 100 µM (inactive)	> 100 µM (inactive)	38.8 µM (inactive)	82.8 µM (inactive)	38.3 µM (inactive)	46.9 µM (inactive)	68.1 µM (inactive)	99.5 µM (inactive)	5.52 µM (inactive)
CC(=O)Oc1c2ccsc2c(OC(C)=O)c2ccsc12	0.384 µM (active)	0.12 µM (active)	0.269 µM (active)	0.577 µM (active)	0.483 µM (active)	1.33 µM (inactive)	0.955 µM (active)	0.286 µM (active)	0.667 µM (active)	2.62 µM (inactive)	0.354 µM (active)	2.47 µM (inactive)	0.412 µM (active)	0.164 µM (active)	1.27 µM (inactive)	2.54 µM (inactive)	0.294 µM (active)	0.417 µM (active)	1.89 µM (inactive)	1.76 µM (inactive)
O=C(NCCc1ccc(F)cc1)c1cc(/C=C/c2cc(O)ccc2O)ccc1O	1.44 µM (inactive)	3.05 µM (inactive)	3.67 µM (inactive)	1.85 µM (inactive)	1.52 µM (inactive)	1.66 µM (inactive)	2.48 µM (inactive)	2.42 µM (inactive)	2.45 µM (inactive)	2.24 µM (inactive)	4.26 µM (inactive)	6.64 µM (inactive)	10.3 µM (inactive)	2.96 µM (inactive)	6.11 µM (inactive)	8.59 µM (inactive)	2.36 µM (inactive)	2.56 µM (inactive)	2.24 µM (inactive)	3.14 µM (inactive)
CC(NC(=O)/C(C#N)=C/c1ccc2[nH]ccc2c1)c1ccccc1 (centres undefined)	11.2 µM (inactive)	16.2 µM (inactive)	20.6 µM (inactive)	14.5 µM (inactive)	12.8 µM (inactive)	14.7 µM (inactive)	20.8 µM (inactive)	28.2 µM (inactive)	20.9 µM (inactive)	16.7 µM (inactive)	31.6 µM (inactive)	17.5 µM (inactive)	16.7 µM (inactive)	20.3 µM (inactive)	18.2 µM (inactive)	24.1 µM (inactive)	19.8 µM (inactive)	24.9 µM (inactive)	20.3 µM (inactive)	17.1 µM (inactive)
